Measurements taken from US6358948B1 (American Home Products Corporation, priority 1999, dated 2002).
Where “and” joins values, the source holds several entries; their conditions need not be identical. Equal values may be shown once.

Test system: T47D cells
Assay: T47D cell proliferation assay (BrdU incorporation)
Format: cell-based
Conditions: half-maximal increase in BrdU incorporation in T47D cells; individual studies
Method: 3. T47D Cell Proliferation Assay
The objective of this assay is the determination of progestational and antiprogestational potency by using a cell proliferation assay in T47D cells. A compound's effect on DNA synthesis in T47D cells is measured.
DMEM:F12 (1:1) (GIBCO, BRL) supplemented with 10% (v/v) fetal bovine serum (not heat-inactivated), 100 U/ml penicillin, […], and 2 mM GlutaMax (GIBCO, BRL).
Minimum Essential Medium (MEM) (#51200-038GIBCO, BRL) phenol red-free supplemented with 0.5% charcoal stripped fetal bovine serum, 100 U/ml penicillin, 200 mg/ml streptomycin, and 2 mM GlutaMax (GIBCO, BRL).
Stock T47 D cells are maintained in growth medium. For BrdU incorporation assay, cells are plated in 96-well plates (Falcon, Becton Dickinson Labware) at 10,000 cells/well in growth medium. […]
At the end of BrdU labeling, the medium is removed and BrdU incorporation is measured using a cell proliferation ELISA kit (#RPN 250, Amersham Life Science) according to manufacturer's instructions. […] Then 25 μl of 1 M sulfuric acid is added to each well to stop color reaction and optical density is read in a plate reader at 450 nm within 5 min.
Square root-transformed data are used for analysis of variance and nonlinear dose response curve fitting for both agonist and antagonist modes. […] EC50 or IC50 values are calculated from the retransformed values. […]

Compound | EC50
C[C@H](O)C(=O)[C@@]1(C)CC[C@H]2[C@@H]3CCC4=CC(=O)CCC4=C3CC[C@@]21C [Trimegestone] | 0.017 nM and 0.014 nM and 0.019 nM
CC(=O)O[C@]1(C(C)=O)CC[C@H]2[C@@H]3C[C@H](C)C4=CC(=O)CC[C@]4(C)[C@H]3CC[C@@]21C [MPA, medroxyprogesterone acetate] | 0.019 nM
